Results from patent publication US9833446B2, “Hedgehog pathway inhibition for cartilage tumor and metachondromatosis treatment” (Rhode Island Hospital, priority 2012, dated 2017).
“Also recorded” adds a separate entry of the source.

Experiments:
ATDC5 cells = test: q-PCR of Ihh and Pthrp expression in inhibitor-treated parental ATDC5 cells; format: cell-based, murine; conditions: PD173074 10 nM, UO126 1 μM, n=3, p<0.05
Description: (§1) FIG. 4a, Left panel, is a bar graph of qPCR results showing increased Col2α1, Col10α1, Ihh, and Pthrp expression in laser-captured cartilaginous cells from exostoses, compared with normal articular cartilage cells (n=4, *p<0.05, Student t test). FIG. 4a, Right panel, is a series of photomicrographs showing immunostaining of paraffin sections from Perichondrial Groove of Ranvier region of Ctsk-KO and Control mice. Note the decreased number of p-Erk+ cells, but increased Ihh expression in Ctsk-KO, compared with Control, mice. FIG. 4b, Left Panel, is a photograph of an immunoblot showing Shp2 levels in ATDC5 chondroprogenitor cell lines stably expressing shRNAs against murine Ptpn11 (ATDC5-KD1, ATDC5-KD2, respectively) or a scrambled control hairpin. […] FIG. 4c is a bar graph showing that FGFR (PD173074, 10 nM) or MEK (UO126, 1 μM) inhibitor treatment of parental ATDC5 cells enhances Ihh and Pthrp expression, as shown by q-PCR (n=3, *p<0.05, Student t test). […] Images of representative posterior paws (i-iv) and knese (v-vii) taken pre-treatment (i, iii, v, vii) and post-treatment with vehicle (ii, vi) or Smoothened inhibitor (SMOi) (iv, viii) for 4 weeks. Note continued development of exostoses and endochromas in Vehicle-treated mice, and their amelioration in SMOi-treated group (arrows). Also, see FIGS. 7a,b and 8a,b.
Parental ATDC5 cells were purchased from the ATCC and cultured in complete DMEM/F12 medium (1:1) (Invitrogen) as described46. ATDC5 cells stably expressing short hairpin RNAs against murine Shp2 • (oligoA:5′[…] TCTGAATCTT TTTGGAAA (SEQ ID NO:1)); • Oligo B: 5-[…] (SEQ ID NO:2)) or its scrambled control were established by using pSuper(retro)/puro retroviral vector (Oligoengine, Inc) and pEcopac.
(§2) Quantitative RT-PCR. RNA was extracted from cultured cells or cartilage lesions captured by laser dissection by using the RNeasy kit (Qiagen). cDNA was synthesized using iScript™cDNA Synthesis Kit (Bio-Rad) and q-PCR was performed by using the RT2SYBR®Green qPCR kit. All values were normalized to Gapdh levels, and qPCR data are expressed as fold-increases compared with controls.
CCPs are rare, rendering detailed biochemical analyses of these cells unfeasible. We therefore tested the effects of Shp2 depletion in ATDC5 chondroid cells by stably expressing either of two shRNAs directed against murine Ptpn11. As in Ctsk-KO mice (FIG. 4a), Fgf18-evoked Erk activation was decreased, while Ihh and Pthrp levels were increased, in Shp2 deficient-ATDC5 cells, compared with cells expressing an shRNA control (FIG. 4b). Conversely, FGFR (PD173074) or MEK (UO126) inhibitor treatment of randomly growing, parental ATDC5 cells led to enhanced Ihh and Pthrp expression (FIG. 4c).

Hedgehog pathway = test: qPCR of epiphyseal cartilage after oral Smoothened inhibitor in wild type mice; format: in vivo; conditions: oral administration for 1 week, n=3, p<0.05
Description: FIG. 8a is a series of charts showing number and size of exostoses in Ctsk-KO mice post-treatment (n=5) with vehicle or Smoothened inhibitor (SMOi). […] FIG. 8b is a bar graph of qPCR results showing that oral administration of the Smoothened inhibitor SMOi to wild type mice for 1 week blunts the expression of Col2α1, Col10α1, Mmp13 and Gli1 in epiphyseal cartilage (n=3, *p<0.05, student t test).
as §2

Ctsk-KO mice = test: Smoothened inhibitor treatment of Ctsk-KO mice (metachondromatosis model), X-ray, μ-CT and histology; format: in vivo; conditions: for number of exostoses / size of exostoses: vs vehicle; for cartilage tumor condition / disease process in Shp2 mutant mice: systemic administration
Description: as §1
All animals used for these experiments are shown. […] SMOi was administered by oral gavage to Ctsk-KO mice beginning at post-natal week 5 for four weeks, and mice were euthanized at week 9.
Microcomputed Tomography (μ-CT) and x-Ray Analysis. X-ray images of the entire skeleton, knees, metatarsals and phalanges were obtained immediately after euthanasia by using a Faxitron X-ray system (Wheeling, Ill.). After fixation in 4% PFA, μ-CT images of skeletal tissues were scanned with the desktop microcomputer graphic imaging system (μ-CT40, Scanco Medical AG, CH). The number and size of exostoses were measured visually based on x-ray images.
Ihh signaling leads to Pthrp production. […] If so, then blocking or attenuating Ihh signaling might slow and/or prevent MC development. To test this hypothesis, Control (wild type) and Ctsk-KO mice (5/group) were treated with the Smoothened inhibitor PF-04449913 (100 μg/g body weight) or vehicle control (0.5% methylcellulose) by daily gavage, beginning at 5 weeks of age and continuing for the succeeding 4 weeks. The skeletal phenotype was examined by X-ray, μ-CT, and histological analysis at the end of experiment.

[1] = Ctsk-KO mice, 100 μg/g body weight, daily gavage, 4 weeks
[2] = Ctsk-KO mice, 100 μg/g body weight, daily gavage, 4 weeks, listed as SMOi

SMILES | Ihh expression (q-PCR) (ATDC5 cells) | Pthrp expression (q-PCR) (ATDC5 cells) | expression of Col2α1 in epiphyseal cartilage (qPCR) (Hedgehog pathway) | expression of Col10α1 in epiphyseal cartilage (qPCR) (Hedgehog pathway) | expression of Gli1 in epiphyseal cartilage (qPCR) (Hedgehog pathway) | expression of Mmp13 in epiphyseal cartilage (qPCR) (Hedgehog pathway) | function of multiple joints (Ctsk-KO mice; [1]) | tumor formation (Faxitron radiographs) (Ctsk-KO mice; Ctsk-KO mice, 100 μg/g body weight, daily gavage, 4 weeks from week 5, vs vehicle (0.5% methylcellulose)) | number of exostoses (Ctsk-KO mice; [1]) | size of exostoses (Ctsk-KO mice; [1]) | number of exostoses (Ctsk-KO mice; [2]) | size of exostoses (Ctsk-KO mice; [2]) | cartilage tumor condition / disease process in Shp2 mutant mice (Ctsk-KO mice) | cartilage tumor condition / disease process in Shp2 mutant mice (Ctsk-KO mice; listed as PF-0444993)
CCN(CC)CCCCNc1ncc2cc(-c3cc(OC)cc(OC)c3)c(NC(=O)NC(C)(C)C)nc2n1 [PD173074] | enhanced | enhanced |  |  |  |  |  |  |  |  |  |  |  | 
CN1CC[C@@H](NC(=O)Nc2ccc(C#N)cc2)C[C@@H]1c1nc2ccccc2[nH]1 [PF-04449913] |  |  | blunts | blunts | blunts | blunts | improved | ameliorates tumor formation | significantly reduced | significantly reduced | reduction of number; also recorded: decrease in average number of exostoses | reduction of number and size | reduces the cartilage tumor condition | can stop or slow down the disease process
N#CC(=C(/N)Sc1ccccc1N)/C(C#N)=C(/N)Sc1ccccc1N [UO126] | enhanced | enhanced |  |  |  |  |  |  |  |  |  |  |  | 
